Reference: ChEMBL document CHEMBL4476874, “Compounds for the modulation of myc activity” (2018)

These compounds were tested against Myc proto-oncogene protein (Homo sapiens, UniProt P01106) (assay: Inhibition of human c-Myc assessed as reduction in c-Myc/Max/Ebox DNA complex formation using pre-formed complex of c-Myc and biotinylated DNA containing single Ebox-sequence followed by compound addition and further addition of his6-tagged c-Max and incubated for 2 hrs by AlphaScreen assay).
Sequence of Myc proto-oncogene protein (P01106 whole entry): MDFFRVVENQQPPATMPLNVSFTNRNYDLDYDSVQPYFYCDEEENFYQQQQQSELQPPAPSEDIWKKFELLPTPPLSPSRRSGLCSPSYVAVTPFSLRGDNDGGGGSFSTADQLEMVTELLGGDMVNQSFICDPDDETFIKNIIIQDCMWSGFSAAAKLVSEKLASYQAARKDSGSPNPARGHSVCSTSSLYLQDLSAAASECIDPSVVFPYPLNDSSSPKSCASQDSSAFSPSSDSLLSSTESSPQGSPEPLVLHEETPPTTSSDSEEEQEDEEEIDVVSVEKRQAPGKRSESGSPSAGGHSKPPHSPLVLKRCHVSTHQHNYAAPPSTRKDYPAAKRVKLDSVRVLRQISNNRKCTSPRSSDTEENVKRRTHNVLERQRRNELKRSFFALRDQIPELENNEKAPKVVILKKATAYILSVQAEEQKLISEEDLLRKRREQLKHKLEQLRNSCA

| IC50 | Structure (SMILES) |
| --- | --- |
| > 10 µM | COCCNCCC(=O)Nc1sc2c(c1-c1nc3cc(-c4cccnc4OC)ccc3s1)CCNC2 |
| < 0.3 µM | O=C(Nc1sc2c(c1-c1nc3ccccc3s1)CCNC2)C1CNC1 |
| > 10 µM | CC(C)N1CCc2c(sc(NC(=O)CCNc3ccccc3)c2-c2nc3ccccc3s2)C1 |
| > 10 µM | COCCNCCC(=O)Nc1sc2c(c1-c1nc3cc(-c4ccc5c(c4)OCO5)ccc3s1)CCNC2 |
| 1 to 10 µM | CCOc1ccc(-c2ccc3nc(-c4c(NC(=O)CCNCCOC)sc5c4CCNC5)sc3c2)cn1 |
| 0.3 to 1 µM | COCCNCCC(=O)Nc1sc2c(c1-c1nc3ccc(-c4ccc(C(=O)N(C)C)cc4F)cc3s1)CCNC2 |
| > 10 µM | COCCNCCC(=O)Nc1sc2c(c1-c1nc3ccc(-c4cccc5cccnc45)cc3s1)CCNC2 |
| 0.3 to 1 µM | COCCNCCC(=O)Nc1sc2c(c1-c1nc3c(C)cccc3o1)CCNC2 |
| 1 to 10 µM | COCCNCCC(=O)Nc1sc2c(c1-c1nc3ccc(-c4cnn(Cc5ccccc5)c4)cc3s1)CCNC2 |
| 0.3 to 1 µM | O=C(CC1COCCN1)Nc1sc2c(c1-c1nc3ccccc3s1)CCNC2 (stereo unspecified) |
| < 0.3 µM | COc1ccc(-c2ccc3sc(-c4c(NC(=O)CCNC(C)C)sc5c4CCNC5)nc3c2)cc1 |
| 1 to 10 µM | CC(C)N1CCc2c(sc(NC(=O)CCNc3cccc(O)c3)c2-c2nc3ccccc3s2)C1 |
| > 10 µM | COCCNCCC(=O)Nc1sc2c(c1-c1nc3ccc(-c4ccc5c(c4)OCO5)cc3s1)CCNC2 |
| > 10 µM | CC(C)N1CCc2c(sc(NC(=O)CCNc3cccc(F)c3)c2-c2nc3ccccc3s2)C1 |
| > 10 µM | COCCNCCC(=O)Nc1sc2c(c1-c1nc3ccc(-c4c(C)nn(C)c4C)cc3s1)CCNC2 |
| 1 to 10 µM | COCCNCCC(=O)Nc1sc2c(c1-c1nc3ccc(-c4cccc(C#N)c4)cc3s1)CCNC2 |
| > 10 µM | COCCNCCC(=O)Nc1sc2c(c1-c1nc3ccc(-c4ccc(C)c(C#N)c4)cc3s1)CCNC2 |
| > 10 µM | COCCNCCC(=O)Nc1sc2c(c1-c1nc3cc(-c4ccccc4S(C)(=O)=O)ccc3s1)CCNC2 |
| > 10 µM | COCCNCCC(=O)Nc1sc2c(c1-c1nc3cc(-c4ccc(C)c(C#N)c4)ccc3s1)CCNC2 |
| 1 to 10 µM | COCCNCCC(=O)Nc1sc2c(c1-c1nc3cc(-c4ccc(C)nc4OC)ccc3s1)CCNC2 |
| > 10 µM | COCCNCCC(=O)Nc1sc2c(c1-c1nc3ccc(-c4cccc(C(F)(F)F)c4)cc3s1)CCNC2 |
| > 10 µM | COCCNCCC(=O)Nc1sc2c(c1-c1nc3ccc(-c4ccc5c(c4)NC(=O)CO5)cc3s1)CCNC2 |

| IC50 | Structure (SMILES) |
| --- | --- |
| > 10 µM | COCCNCCC(=O)Nc1sc2c(c1-c1nc3ccc(-c4cnc(N)c(C(F)(F)F)c4)cc3s1)CCNC2 |
| 1 to 10 µM | COCCNCCC(=O)Nc1sc2c(c1-c1nc3ccc(-c4cncc(OC)c4)cc3s1)CCNC2 |
| 1 to 10 µM | COCCNCCC(=O)Nc1sc2c(c1-c1nc3cc(-c4cnc(OC)c(OC)c4)ccc3s1)CCNC2 |
| 1 to 10 µM | CC(NCCC(=O)Nc1sc2c(c1-c1nc3ccccc3s1)CCN(C(C)C)C2)c1ccncc1 (stereo unspecified) |
| > 10 µM | CCOc1ncccc1-c1ccc2nc(-c3c(NC(=O)CCNCCOC)sc4c3CCNC4)sc2c1 |
| 1 to 10 µM | CNC(=O)Nc1ccc(-c2ccc3sc(-c4c(NC(=O)CCNCCOC)sc5c4CCNC5)nc3c2)cc1 |
| 1 to 10 µM | COCCNCCC(=O)Nc1sc2c(c1-c1nc3cc(-c4c(C)n[nH]c4C)ccc3s1)CCNC2 |
| > 10 µM | COCCNCCC(=O)Nc1sc2c(c1-c1nc3ccc(-c4cnccc4OC)cc3s1)CCNC2 |
| 0.3 to 1 µM | O=C(CC1CCCN1)Nc1sc2c(c1-c1nc3ccccc3s1)CCNC2 (stereo unspecified) |
| > 10 µM | COCCNCCC(=O)Nc1sc2c(c1-c1nc3ccc(-c4ccccc4S(C)(=O)=O)cc3s1)CCNC2 |
| 1 to 10 µM | COCCNCCC(=O)Nc1sc2c(c1-c1nc3cc(-c4cccc(C(=O)N5CCN(C)CC5)c4)ccc3s1)CCNC2 |
| 1 to 10 µM | COCCNCCC(=O)Nc1sc2c(c1-c1nc3ccc(-c4cccnc4OC)cc3s1)CCNC2 |
| 1 to 10 µM | COCCNCCC(=O)Nc1sc2c(c1-c1nc3ccc(-c4cnc(OC)c(OC)c4)cc3s1)CCNC2 |
| 1 to 10 µM | COc1ccccc1-c1ccc2sc(-c3c(NC(=O)CCNC(C)C)sc4c3CCNC4)nc2c1 |
| 0.3 to 1 µM | COCCNCCC(=O)Nc1sc2c(c1-c1nc3cc(-c4ccc5cnn(C)c5c4)ccc3s1)CCNC2 |
| > 10 µM | COCCNCCC(=O)Nc1sc2c(c1-c1nc3ccc(-c4ccc(OC(C)C)nc4)cc3s1)CCNC2 |
| 1 to 10 µM | COc1cccc(-c2ccc3sc(-c4c(NC(=O)CCNC(C)C)sc5c4CCNC5)nc3c2)c1 |
| > 10 µM | CC(C)N1CCc2c(sc(NC(=O)CCN3CCc4ccccc4C3)c2-c2nc3ccccc3s2)C1 |
| 0.3 to 1 µM | CC(=O)Nc1ccc(-c2ccc3sc(-c4c(NC(=O)CCNC(C)C)sc5c4CCNC5)nc3c2)cc1 |
| 1 to 10 µM | CC(C)N1CCc2c(sc(NC(=O)CCNc3cccnc3)c2-c2nc3ccccc3s2)C1 |
| > 10 µM | CCC(C)N(CCC(=O)Nc1sc2c(c1-c1nc3ccccc3s1)CCN(C(C)C)C2)C(=O)OC(C)(C)C (stereo unspecified) |
| 1 to 10 µM | Cc1cc(C)c(CNCCC(=O)Nc2sc3c(c2-c2nc4ccccc4s2)CCN(C(C)C)C3)c(=O)[nH]1 |

| IC50 | Structure (SMILES) |
| --- | --- |
| > 10 µM | COCCNCCC(=O)Nc1sc2c(c1-c1nc3cc(-c4ccc(OC)c(OC)c4)ccc3s1)CCNC2 |
| > 10 µM | CC(C)N1CCc2c(sc(NC(=O)CCNc3ccc(-c4nnn[nH]4)cc3)c2-c2nc3ccccc3s2)C1 |
| > 10 µM | COCCNCCC(=O)Nc1sc2c(c1-c1nc3cc(-c4ccncc4Cl)ccc3s1)CCNC2 |
| < 0.3 µM | COCCNCCC(=O)Nc1sc2c(c1-c1nc3cc(-c4ccc(N5CCNCC5)nc4)ccc3s1)CCNC2 |
| > 10 µM | COCCNCCC(=O)Nc1sc2c(c1-c1nc3ccc(-c4cccnc4C)cc3s1)CCNC2 |
| > 10 µM | COCCNCCC(=O)Nc1sc2c(c1-c1nc3ccc(-c4cnc(N5CCOCC5)nc4)cc3s1)CCNC2 |
| > 10 µM | COCCNCCC(=O)Nc1sc2c(c1-c1nc3ccc(-c4c(C)n[nH]c4C)cc3s1)CCNC2 |
| > 10 µM | COCCNCCC(=O)Nc1sc2c(c1-c1nc3ccc(-c4ccc(N5CCOCC5)nc4)cc3s1)CCNC2 |
| > 10 µM | COCCNCCC(=O)Nc1sc2c(c1-c1nc3cc(-c4ccc(OC)nc4C)ccc3s1)CCNC2 |
| > 10 µM | CNS(=O)(=O)c1ccccc1-c1ccc2sc(-c3c(NC(=O)CCNCCOC)sc4c3CCNC4)nc2c1 |
| > 10 µM | COCCNCCC(=O)Nc1sc2c(c1-c1nc3ccc(-c4ccc(C)nc4OC)cc3s1)CCNC2 |
| 0.3 to 1 µM | CC(C)NCCC(=O)Nc1sc2c(c1-c1nc3cc(-c4ccccc4)ccc3s1)CCNC2 |
| 1 to 10 µM | COc1cccc(NCCC(=O)Nc2sc3c(c2-c2nc4ccccc4s2)CCN(C(C)C)C3)c1 |
| 1 to 10 µM | COCCNCCC(=O)Nc1sc2c(c1-c1nc3cc(-c4cccc5[nH]ncc45)ccc3s1)CCNC2 |
| > 10 µM | COCCNCCC(=O)Nc1sc2c(c1-c1nc3ccc(-c4cncc(OCCOC)c4)cc3s1)CCNC2 |
| 1 to 10 µM | COCCNCCC(=O)Nc1sc2c(c1-c1nc3ccc(-c4ccc5ncnn5c4)cc3s1)CCNC2 |
| < 0.3 µM | CC(C)NCCC(=O)Nc1sc2c(c1-c1nc3cc(-c4nn[nH]n4)ccc3s1)CCNC2 |
| < 0.3 µM | CC(C)NCCC(=O)Nc1sc2c(c1-c1nc3cc(-n4cncn4)ccc3s1)CCNC2 |
| < 0.3 µM | CC(C)NCCC(=O)Nc1sc2c(c1-c1nc3cc(C#N)ccc3s1)CCNC2 |
| > 10 µM | COCCNCCC(=O)Nc1sc2c(c1-c1nc3ccc(-c4cccnc4F)cc3s1)CCNC2 |
| > 10 µM | COCCNCCC(=O)Nc1sc2c(c1-c1nc3cc(-c4ccc5ncccc5c4)ccc3s1)CCNC2 |

| Structure (SMILES) | IC50 |
| --- | --- |
| CC(C)NCCC(=O)Nc1sc2c(c1-c1nc3cc(C4=CCNCC4)ccc3s1)CCNC2 | < 0.3 µM |
